Results taken from patent US20240196933A1, “USE OF GOSSYPOL AND A METHANE INHIBITOR FOR REDUCING THE FORMATION OF METHANE EMANATING FROM THE DIGESTIVE ACTIVITIES OF RUMINANTS” (DSM IP ASSETS B.V., priority 2021, published 2024).

Tested on: rumen liquor
Assay: In vitro test for methane production (modified Hohenheim Forage value Test, HFT)
Assay type: cell-based
Conditions: TMR feed, 8 h at 39° C.
Method: In vitro test for methane production: A modified version of the “Hohenheim Forage value Test (HFT)” was used for testing the effect of specific compounds on the rumen functions mimicked by this in-vitro system.
Principle: Feed is gadded into a syringe with a composition of rumen liquor and an appropriate mixture of buffers. The solution is incubated at 39° C. After 8 hours the quantity (and composition) of gas phase produced is measured and put into a formula for conversion.
Sample weighing: The feed stuff (i.e. TMR (44% concentrate, 6% hay, 37% maize silage and 13% grass silage) is sieved to 1 mm and weighed exactly into 64 syringes. 4 of these syringes are the substrate controls, which display the gas production without the effect of the tested compounds. 4 other syringes are positive control (3-NOP, 10 μM). When needed, 4 syringes contain a carrier control (if the test compounds need a carrier). The remaining syringes contain the test substances, by groups of 4 syringes, in the amounts as indicated in table 1.
• The components are mixed in a Woulff bottle in following order: • 711 ml water • 0.18 ml trace element solution • 355.5 ml buffer solution • 355.5 ml mass element solution • The completed solution is warmed up to 39° C. followed by the addition of 1.83 ml sodium salt solution and the addition of reduction solution at 36° C. The rumen liquor is added, when the indicator turns colourless.
Extraction of the rumen liquor: 750 ml of rumen liquor are added to approximately 1,400 ml of medium solution under continued agitation and CO2-gassing.
Filling the syringes, incubation and determining gas volumes and VFA values: The diluted rumen fluid (24 ml) is added to the glass syringe. The syringes are then incubated for 8 hours at 39° C. under gentle agitation. After 8 hours, the volume of gas produced is measured, and the percentage of methane in the gas phase is determined by gas chromatography.
The food fermented was artificial TMR (44% concentrate, 6% hay, 37% maize silage and 13% grass silage). Gossypol was obtained from Sigma-Aldrich (G8761), and used at a concentration as outlined in table 1. 3-Nitrooxy-propanol (3-NOP) was used at the concentration as outlined in table 1.

Compound	Total methane change [% vs. control] found (3-NOP 2.5 μM alone) [% vs. control]	Total methane change [% vs. control] found (3-NOP 5 μM alone) [% vs. control]	Total methane change [% vs. control] found (3-NOP 10 μM alone) [% vs. control]	Total methane change [% vs. control] found (G 5 μM alone) [% vs. control]	Total methane change [% vs. control] found (G 10 μM alone) [% vs. control]	Total methane change [% vs. control] found (G 20 μM alone) [% vs. control]	Total methane change [% vs. control] found (G 100 μM alone) [% vs. control]
O=[N+]([O-])OCCCO [3-NOP, 3-Nitrooxy-propanol, reference compound]	−12	−54	−98	–	–	–	–
Cc1cc2c(C(C)C)c(O)c(O)c(C=O)c2c(O)c1-c1c(C)cc2c(C(C)C)c(O)c(O)c(C=O)c2c1O [G, Gossypol]	–	–	–	−1	−11	−15	−69
